Measurements taken from ChEMBL document CHEMBL5500360, “Discovery of N-(4-((6-(3,5- Dimethoxyphenyl)-9H-purine derivatives as irreversible covalent FGFR inhibitors” (Eur J Med Chem, 2024).
Activity calls are given as the source filed them. No cut-off for these calls is given here.

Experiments:
[1] = test system: MDA-MB-231; experiment: Antitumor activity against human MDA-MB-231 cells xenografted in female BALB/c athymic nude mouse assessed as tumor growth inhibition at 10 mg/kg, po administered once a day via gavage for 21 days relative to control; assay type: functional; conditions: MDA-MB-231, 504 h, time 21 day, read-out: TGI
[2] = test system: MDA-MB-231; experiment: Induction of apoptosis in human MDA-MB-231 cells assessed as late apoptotic cells at 5 uM incubated for 24 hrs by Annexin V-FITC/PI staining based flow cytometric analysis (reference value: 0.161 %); assay type: functional
[3] = test system: MDA-MB-231; experiment: Induction of apoptosis in human MDA-MB-231 cells assessed as early apoptotic cells at 5 uM incubated for 24 hrs by Annexin V-FITC/PI staining based flow cytometric analysis (reference value: 0.131 %); assay type: functional
[4] = test system: MDA-MB-231; experiment: Inhibition of cell migration in human MDA-MB-231 cells at 2.5 uM incubated for 12 hrs by cell scratch assay; assay type: functional, cell-based
[5] = test system: KYSE-150 cell line; experiment: cells; conditions: Homo sapiens, KYSE-150, 72 h
Description: Antiproliferative activity against human KYSE-150 cells assessed as inhibition of cell growth incubated for 72 hrs by MTT assay

[6] = test system: MDA-MB-435; experiment: cells; conditions: Homo sapiens, MDA-MB-435, 72 h
Description: Antiproliferative activity against human MDA-MB-435 cells assessed as inhibition of cell growth incubated for 72 hrs by MTT assay

[7] = test system: MDA-MB-231; experiment: Induction of apoptosis in human MDA-MB-231 cells assessed as necrotic cells at 5 uM incubated for 24 hrs by Annexin V-FITC/PI staining based flow cytometric analysis (reference value: 0.063 %); assay type: functional
[8] = test system: MDA-MB-231; experiment: Cell cycle arrest in human MDA-MB-231 cells assessed as accumulation of G0-G1 phase cells at 5 uM incubated for 24 hrs by […]PI staining based flow cytometric analysis (reference value: 41.83%); assay type: functional
[9] = test system: MDA-MB-231; experiment: Cell cycle arrest in human MDA-MB-231 cells assessed as accumulation of S phase cells at 5 uM incubated for 24 hrs by […]PI staining based flow cytometric analysis (reference value: 41.29%); assay type: functional
[10] = test system: MDA-MB-231; experiment: Induction of apoptosis in human MDA-MB-231 cells assessed as viable cells at 5 uM incubated for 24 hrs by Annexin V-FITC/PI staining based flow cytometric analysis (reference value: 99.645%); assay type: functional; conditions: read-out: Activity
[11] = in vitro; conditions: human, HUVEC cells
Description: Cytotoxicity against HUVEC cells assessed as inhibition of cell growth incubated for 72 hrs by MTT assay

[12] = test system: MDA-MB-231; experiment: cells; conditions: Homo sapiens, MDA-MB-231, 72 h
[13] = test system: MDA-MB-231; experiment: Cell cycle arrest in human MDA-MB-231 cells assessed as accumulation of G2-M phase cells at 5 uM incubated for 24 hrs by […]PI staining based flow cytometric analysis (reference value: 16.88%); assay type: functional
[14] = test system: MDA-MB-231; experiment: Induction of apoptosis in human MDA-MB-231 cells assessed as apoptotic cells at 5 uM incubated for 24 hrs by Annexin V-FITC/PI staining based flow cytometric analysis relative to control; assay type: functional
[15] = test system: MDA-MB-231; experiment: Induction of ROS production in human MDA-MB-231 cells at 5 uM incubated for 12 hrs by flow cytometry based confocal microscopic analysis; assay type: functional, cell-based
[16] = test system: HepG2; experiment: cells; conditions: Homo sapiens, HepG2, 72 h

IC50 [5]: 8.92 µM
IC50 [6]: 21.6 µM
IC50 at 72 h [11]: 38 µM
IC50 [12]: 7.19 µM
IC50 [16]: 3.13 µM
SMILES: COc1cc(CCc2cc(NC(=O)c3ccc(N4C[C@@H](C)N[C@@H](C)C4)cc3)n[nH]2)cc(OC)c1 [FEXAGRATINIB]
inhibition in vivo at 10 mg/kg [1]: 52.6%
Activity [2]: 10.3%
Activity [3]: 29%
inhibition [4]: Active
Activity [7]: 2.72%
Activity [8]: 58.92%
Activity [9]: 26.31%
viability at 5 µM [10]: 58%
Activity [13]: 14.77%
Activity [14]: 37.3%
Activity [15]: Active
